Consider three compounds from patent US20100247602A1, “METHOD OF REDUCING THE EFFECTS OF CYTOSTATIC DRUGS ON BONE MARROW DERIVED CELLS, AND METHODS OF SCREENING” (priority 2007, published 2010).

Molecules are shown by their SMILES. Entries after “also recorded” stand apart in the source; their conditions may differ.

Data set [1] concerns bone marrow derived cells (BMDCs). Nature of the data set: Proliferation assay of BMDCs (cell count with trypan blue). The format is cell-based, mouse (C57BL/6 female mice). As to conditions: for IC50: Mus musculus, BMDC, 168 h, one week treatment, cellular count, read-out: IC50 for cell growth. The protocol:
(§1) BMDCs were cultured and isolated as described above.
After this time, cells were processed as described above.

Data set [2] has the same test system. The text has this:
Six-week old C57BL/6 female mice (Jackson Laboratoiries, Bar Harbor, Mass.) were used as bone marrow donors. The mice were euthanized by a ketamine hydrochloride (Bioniche, Belleville, ON) and xylazine (Rompum, Bayer's Inc, Toronto, ON) injections. Total bone marrow cells were collected from femurs and tibia, pooled, and washed twice with phosphate-buffered saline (PBS, Invitrogen corp., Carlsbad, Calif.) contained 2% fetal bovine serum (FBS, Hyclone Laboratories, Logan, Utah). All the bone marrow derived cells (BMDCs) were plated in 6-wells culture plates (Corning, Corning, N.Y.) precoated with rat fibronectin (Calbiochem, San Diego, Calif.), in Hematopoietic Growth Medium (HPGM Lonza, Walkersvelle, Md.) contained 2% fetal bovine serum (FBS, Hyclone Laboratories) and antibiotics (1% penicillin-streptomycin, Invitrogen corp.). Cells were grown in presence of 10 ng/mL platelet derived growth factor (PDGF, Peprotech. Inc, Rocky Hill, N.J.) and 10 ng/mL […] (EGF, Peprotech. Inc.) during the first 7 days. The experimental protocol was approved by the animal care committee of the Montreal Heart Institute.
BMDCs were cultured and isolated as described above. At day 7, complete culture medium was replaced by an incomplete culture medium: HPGM medium, 2% fetal bovine serum ([…] EGF and PDGF), and 1% antibiotics (penicillin and streptomycin) with or without E2 (10^−10 M to 10^−6 M) (Sigma) and/or rapamycin (10^−11M to 10^−6 M) (LC Laboratories, Woburn, Mass.) or paclitaxel (10^−11M to 10^−6 M) (LC laboratories) for another 7 days. In the case of combined treatment, the E2 was added 24 h prior the addition of the drug. First medium change was performed four days after plating and each following three days for a total of 14 days in culture.
After this treatment, the cells were removed from the 6-well culture plate using a 0.02% solution of (ethylenedinitrilo) tetraacetic acid (EDTA, Sigma) and diluted 1:1 in Trypan blue (Invitrogen corp.) before cell count with a hemacytometer (Hausser Bright-line). Total cells number, white cells and blue stained cells were counted. The proliferation rate was defined as the total number of cells over the number of cells at day 0 of the initiation of the treatment. The survival rate was defined as the number of white cells among the total cell population. The mortality rate was defined as the percentage of blue cells (dead cells) among the total cell population. […] The combination assay was achieved by a 24-hour pretreatment of BMDCs with different concentrations of E2 (10^−8 to 10^−10 M) and the drug was added at its IC50 concentration for a one week treatment. After this time, cells were processed as described above.

Data set [3] has the same test system. Description: Necrosis and apoptosis levels (annexin V / propidium iodide flow cytometry). The format is cell-based, mouse (C57BL/6 female mice). As to conditions: for number of annexin V positive cells: drug at IC90 dose, 48 hrs. The protocol: After being cultured and isolated as described above, BMDCs were plated in 12-well culture plate. […] The cells were analyzed 24, 48 and 72 hours later after staining with FITC-conjugated annexin V (Alexis biochemical, San Diego, Calif.) and propidium iodide (PI, Sigma). Acquisition and analysis were performed on an Epics Altra cytometer as described in the section above “Analysis of the differentiation profile”.
In order to evaluate the effect of E2, paclitaxel or rapamycin on early apoptosis, late apoptosis and necrosis, BMDC were treated with either E2, paclitaxel or rapamycin and stained with annexin V and propodium iodine. Cells positive for annexin V only are considered in the early phases of apoptosis while cells positive for propodium iodine only are in necrosis. Cells which stained for both annexin V and propiodium iodine are in a more advanced apoptotic process (FIG. 6). The effect of E2 on the levels of apoptotic and necrotic cells in rapamycin or paclitaxel-treated cells was evaluated (FIG. 7)
Background: Flow cytometry measures light scatter and fluorescence of single cells or particles in a stream.

The test system is the same in data set [4]. Nature of the data set: Differentiation profile of BMDCs by flow cytometry. As to conditions: for percentage of CD117+ cells: E2 alone (10^−9M) or in combination with paclitaxel (5×10^−9 M), one week; for total or sub-populations of CD44+ cells: one week treatment, paclitaxel 5×10^-9M, rapamycin 10^-10M, alone or in combination. It is filed as cell-based, mouse (C57BL/6 female mice). The protocol: as §1
BMDCs were plated and grown during 7 days before treatment (stimulation). Rapamycin (LC Laboratories) or paclitaxel (LC laboratories) were added for a one week treatment at IC50 concentration. Afterward, cells were washed twice in PBS and non specific binding sites were blocked with 5% normal rat serum (Jackson Immunoresearch Laboratories Inc.). To evaluate the differentiation profile of the BMDCs, quadruple stainings were performed as follow: 1) for the HSC allophycocyanin (APC, Caltag Laboratories, Carlsbad, Calif.) conjugated monoclonal rat-anti-mouse CD117, fluorescein isothiocyanate (FITC, BD pharmingen, San Jose, Calif.) conjugated monoclonal rat anti-mouse CD31 (platelet endothelial cell adhesion molecules-1, PECAM), biotin conjugated monoclonal rat anti-mouse CD34 (Bio, BD pharmingen), growth factor receptor-2 (VEGFR2); and 2) for the stromal cells: APC (Abcam Inc., Cambridge Mass.) conjugated monoclonal rat anti-mouse CD90, FITC conjugated (BD pharmingen) monoclonal rat anti-mouse CD44 (hyaluronic acid receptor), PE conjugated monoclonal rat anti-mouse vascular cell adhesion molecule (V-CAM/CD106, Abcam Inc.), biotin (Abcam Inc.) conjugated monoclonal rat anti-mouse CD105 (Endoglin). Corresponding isotype antibodies were used as negative controls; monoclonal rat anti-mouse IgG2a-APC (Abcam Inc.), monoclonal rat anti-mouse IgG2a-FITC, (Abcam Inc.), monoclonal rat anti-mouse IgG2a-PE (BD pharmingen), monoclonal rat anti-mouse IgG2a-Bio (Abcam Inc.). To analyze the biotin conjugated antibody, a secondary antibody streptavidine-ECD (Beckman coulter, Fullerton, Calif.) was used. Data acquisition was performed using 1×10^6 events per sample. Of these events, only low-to-medium FSC (forward scattered channel) and SSC (side scattered channel) singlets were gated for analysis of BM subpopulations. In all cases, gated singlets represented 80 to 90% of acquired events. The acquisition and analysis were performed on an Epics Altra cytometer from Beckman using the EXPO™ 32 system ADC software (Beckman Coulter, Fullerton, Calif.).

The subject of a further data set is ERβ. Description: Western blot, ERβ expression in BMDCs / mBMPC. The format is cell-based, mouse. The protocol:
(§2) Membranes were stripped with Re-Blot Plus™ (International Chemicon) and total protein expression was determined with a goat polyclonal β-actin (1:1000 dilution, Santa Cruz Biotechnology Inc.).
For orientation: A western blot detects proteins with antibodies after separation by electrophoresis.

The subject of data set [5] is ERα and ERβ expressed by BMDCs. Description: Western blot, ratio of ERα expression over ERβ in BMDCs. As to conditions: 24-hour stimulation, at 10^−8 and 10^−7M. The format is cell-based, mouse (C57BL/6 female mice). The protocol:
as §2

The test system of another data set is ERα. Description: Western blot, ERα expression in BMDCs / mBMPC. As to conditions: paclitaxel-treated cells, 24 h, 10^−8 and 10^−7M.

As for `C[C@]12CC[C@@H]3c4ccc(O)cc4CC[C@H]3[C@@H]1CC[C@@H]2O` [E2, 17-beta-estradiol], the “number of living cells” value in data set [1] (one-week treatment with a dose range of E2, compared to cells maintained in HPGM) is listed as “not affected”. In data set [2], the “dead cells (percentage of dead cells)” value is “not affected” and the “reduction of mortality rate” value was 7-11%. Also, the “improvement of survival rate” value in data set [2] (10^−10M E2 added to rapamycin or paclitaxel at IC50, one week, compared to cells treated with the drug only) is listed as “about 30%”. Further, in data set [3] (1 week incubation, alone or in combination with E2, flow cytometry), the “apoptotic and necrotic cells rates” value is “no appreciable differences”. Besides, in data set [3] (E2 combined with rapamycin IC50, 48 hrs, compared to rapamycin IC50 alone), the “percentage of annexin V positive cells” value was “tended to reduce”. The “blocking of the drug-induced (IC90) increase of annexin V positive cells” value in data set [3] (E2 combined with rapamycin or paclitaxel at IC90, 48 hrs stimulations) is “could not be blocked”. Also, in data set [4], the “percentage of CD117+ cells” value is reported as “tended to increase; also recorded: increases” and the “total or sub-populations of CD44+ cells” value is “no effect”. Also, in data set [4] (listed as Estradiol), the “percentage of CD117+ cells” value is “increase”. Moreover, the “level (%) of CD117+ cells in paclitaxel-treated BMDCs” value in data set [4] (in the presence of E2 (24 h pre-treatment), paclitaxel 5×10^−9 M) is given as “higher level”. In data set [4] (two weeks in culture including one week with various doses of E2), the “number of CD14+ cells” value is on record as “does not influence”. Besides, in the data set with ERβ (mBMPC, 24-hour stimulation with various doses of E2 (not shown)), the “regulation of ERβ expression” value is recorded as “No regulation”.

Regarding `CC(=O)O[C@H]1C(=O)[C@@]2(C)[C@H]([C@H](OC(=O)c3ccccc3)[C@]3(O)C[C@H](OC(=O)[C@H](O)[C@@H](NC(=O)c4ccccc4)c4ccccc4)C(C)=C1C3(C)C)[C@]1(OC(C)=O)CO[C@@H]1C[C@@H]2O` [paclitaxel], in data set [1] (BMDCs, one week, very low doses), the “effect on proliferation at very low doses” value is on record as “proliferative effect”. In data set [1] (BMDCs), the IC50 is 5 nM. In data set [2], the “mortality rate, drug alone” value is given as “not observed” and the “toxicity on bone marrow derived cells” value is “toxic”. For the same compound, in data set [3], the “number of annexin V positive cells” value is “increased significantly”. The “total or sub-populations of CD44+ cells” value in data set [4] is “no effect”. Further, in data set [4] (one-week treatment at IC50 concentration), the “differentiation profile of CD117+ or CD44+” value is reported as “does not affect”. In data set [5], the “drop in ERα/ERβ ratio” value is “up to 50%”. Further, the ERβ expression result with ERβ (paclitaxel-treated cells, 24 h, 10^−8 and 10^−7M) is on record as “induction”. Besides, the ERα expression entry in the data set on ERα is reported as “decrease”.

For the compound `CO[C@H]1C[C@@H]2CC[C@@H](C)[C@@](O)(O2)C(=O)C(=O)N2CCCC[C@H]2C(=O)O[C@H]([C@H](C)C[C@@H]2CC[C@@H](O)[C@H](OC)C2)CC(=O)[C@H](C)/C=C(\C)[C@@H](O)[C@@H](OC)C(=O)[C@H](C)C[C@H](C)/C=C/C=C/C=C/1C` [rapamycin], in data set [1] (BMDCs), the half-inhibitory concentration (IC50) stood at 0.1 nM. In data set [2], the “mortality rate, drug alone” value is on record as “significantly increased” and the “toxicity on bone marrow derived cells” value was “toxic”. Moreover, the “number of annexin V positive cells” value in data set [3] is reported as “increased significantly”. Further, the “total or sub-populations of CD44+ cells” value in data set [4] is on record as “no effect”.

In general, IC50 refers to the point on the concentration scale where inhibition reaches its midpoint.
